Reference: ChEMBL document CHEMBL4396950, “A rational search for discovering potential neutraligands of human complement fragment 5a (hC5a)” (Bioorg Med Chem, 2019)
pKd: −log10 of the molar value. Values belong to the compound of their own block, whether it stands above or below them. The source made the active and inactive calls. The calls are words filed in the database; no cut-off is given here.

How the values were obtained:
Complement C5 [1] = target: T1, Complement C5 (Homo sapiens, UniProt P01031); assay: Induction of recombinant human C5a destabilization assessed as protein unfolding at 6 M after 1 hr by fluorescence analysis
Complement C5 [2] = target: T1, Complement C5; assay: Induction of recombinant human C5a destabilization assessed as intrinsically disordered structure at 2 to 4 M by circular dichroism analysis
Complement C5 [3] = target: T1, Complement C5; assay: Induction of recombinant human C5a destabilization assessed as protein unfolding at 6 M incubated for overnight by fluorescence analysis
Complement C5 [4] = target: T1, Complement C5; assay: Induction of recombinant human C5a destabilization assessed as protein unfolding at 6 M by circular dichroism analysis
Complement C5 [5] = target: T1, Complement C5; assay: Induction of recombinant human C5a destabilization assessed as intrinsically disordered structure at 2 to 8 M by circular dichroism analysis
Complement C5 [6] = target: T1, Complement C5; assay: Induction of recombinant human C5a destabilization assessed as intrinsically disordered structure at 8 M incubated for 1 hr by fluorescence analysis
Complement C5 [7] = target: T1, Complement C5; assay: Induction of recombinant human C5a destabilization assessed as intrinsically disordered structure at 8 M incubated for overnight by fluorescence analysis
Complement C5 [8] = target: T1, Complement C5; assay: Binding affinity to human C5a assessed as dissociation constant after 1 hr by circular dichroism analysis
Complement C5 [9] = target: T1, Complement C5; assay: Binding affinity to human C5a assessed as Potassium iodide-induced quenching by measuring Stern-Volmer quenching constant at 1 uM by fluorescence analysis
Complement C5 [10] = target: T1, Complement C5; assay: Binding affinity to recombinant human C5a assessed as loss of super secondary structure at > 10 uM incubated for 1 hr at 4 degC by circular dichroism analysis
Complement C5 [11] = target: T1, Complement C5; assay: Induction of human recombinant C5a destabilization assessed as protein structure helicity up to 10 uM by circular dichroism analysis
Complement C5 [12] = target: T1, Complement C5; assay: Induction of human recombinant C5a unfolding by circular dichroism analysis
Complement C5 [13] = target: T1, Complement C5; assay: Binding affinity to recombinant human C5a assessed as conformational change =< 1 uM at 4 degC incubated for 1 hr by circular dichroism analysis
Complement C5 [14] = target: T1, Complement C5; assay: Binding affinity to human C5a assessed as induction of conformational change with no shift in absorption maxima at 1 uM by fluorescence analysis
Complement C5 [15] = target: T1, Complement C5; assay: Binding affinity to human C5a assessed as loss of secondary structure by measuring red shift in absorption maxima at 10 to 100 uM by fluorescence analysis
Complement C5 [16] = target: T1, Complement C5; assay: Binding affinity to recombinant human C5a assessed as conformational change at 1 to 100 uM incubated for 1 hr at 4degC by circular dichroism analysis

SMILES: N=C(N)N
- Activity (Complement C5 [1]): Active
- Activity (Complement C5 [2]): Active
- Activity (Complement C5 [3]): Active
- Activity (Complement C5 [4]): Active

SMILES: CC(C(=O)O)c1ccc2c(c1)[nH]c1ccc(Cl)cc12 (stereo not drawn) [CARPROFEN]
- pKd (Complement C5 [8]): 6.24
- KSV (Complement C5 [9]): 2.6 M⁻¹

SMILES: CC1=C(CC(=O)O)c2cc(F)ccc2/C1=C\c1ccc([S+](C)[O-])cc1 (stereo not drawn)
- pKd (Complement C5 [8]): 6.24
- Activity (Complement C5 [10]): Active
- Activity (Complement C5 [11]): 5%
- Activity (Complement C5 [12]): Active
- Activity (Complement C5 [13]): Active
- Activity (Complement C5 [14]): Active
- KSV (Complement C5 [9]): 2.5 M⁻¹
- Activity (Complement C5 [15]): Active
- Activity (Complement C5 [16]): Active

SMILES: O=C(c1ccc(OCCN2CCCCC2)cc1)c1c(-c2ccc(O)cc2)sc2cc(O)ccc12 [RALOXIFENE]
- pKd (Complement C5 [8]): 6.15
- KSV (Complement C5 [9]): 1.1 M⁻¹

SMILES: CC(=O)N[C@@H](Cc1c[nH]c2ccccc12)C(N)=O
- KSV (Complement C5 [9]): 12.4 M⁻¹

Results, then the compound that gave them:

- Activity (Complement C5 [5]): Active
- Activity (Complement C5 [6]): Active
- Activity (Complement C5 [7]): Active
SMILES: NC(N)=O

- pKd (Complement C5 [8]): 6.19
- KSV (Complement C5 [9]): 4.3 M⁻¹
SMILES: O=C(O)CCc1nc(-c2ccccc2)c(-c2ccccc2)o1 [OXAPROZIN]
